Measurements: article PMC8581430, “Peptide ligands targeting FGF receptors promote recovery from dorsal root crush injury via AKT/mTOR signaling” (Theranostics, 2021)

Assays:
primary DRG neurons = experiment: Axon growth of primary adult DRG neurons; format: cell-based, Sprague-Dawley rat; conditions: 48 h
Protocol: (§1) Figure 3 Effect of the CH02 peptide on axon growth and neuron survival. (A) Representative images of the CH02 peptide effect on axon growth in adult primary DRG neurons. DRG neurons were obtained from adult Sprague-Dawley rats. After 12-h of culture, neurons were stimulated with CH02 or bFGF for 48 h. Axonal outgrowth was assessed by immunocytochemistry using an antibody against β-tubulin, an axonal marker. Images were acquired from random neurons by fluorescence microscopy. Scale bars = 50 μm. (B) Quantification of the longest axon length of each neuron randomly selected in three independent experiments from (A), using Image-Pro Plus 6.0 software (n = 48 for each condition; *p < 0.05, ****p < 0.0001 by one-way ANOVA with Dunnett's test; ns, not significant; mean ± SD). (C) Representative images of the CH02 effect on axon growth in ex vivo cultured adult DRG explants. The axon is shown in fluorescence (β3-tubulin) images. Scale bars = 100 μm. (D) Quantification of axon growth of DRG explants from (C) using the Neurite-J software (n=4 for each condition; *control vs. CH02; #control vs. bFGF; *p < 0.05, **p < 0.01, ***p < 0.001, #p < 0.05, ##p < 0.01 by two-way ANOVA with Dunnett's test; ns, not significant; mean ± SEM). (E) Cell cytotoxicity assay of primary DRG neurons induced by H2O2. LDH released from damaged cell membranes was detected by an LDH assay kit. The results are expressed as the mean ± SEM (**p < 0.01 by one-way ANOVA with Dunnett's test; ns, not significant, compared with the control group). (F) Representative TUNEL staining of apoptotic neurons induced by H2O2 in the control, CH02, and FGF2 groups. Scale bars = 50 μm. Apoptotic neurons were detected by a TUNEL apoptosis assay kit. TUNEL (green); NeuN, neuronal marker (red); DAPI (blue). (G) Quantification of TUNEL-positive neurons from (F) (n = 3 for each condition; **p < 0.01 by one-way ANOVA with Dunnett's test; ns, not significant, compared with the control group). DRG neurons were obtained from adult Sprague-Dawley rats. […]

DRG explants = experiment: Axon growth of ex vivo cultured adult DRG explants; format: cell-based, Sprague-Dawley rat; conditions: 4 days
Protocol: as §1, with “(F) Representative TUNEL staining of apoptotic neurons induced by H2O2 in the control, CH02, and FGF2 groups. Scale bars = 50 μm.” left out, “TUNEL (green); NeuN, neuronal marker (red); DAPI (blue).” left out, “group).” for “group). DRG neurons were obtained from adult Sprague-Dawley rats.”
DRG explants were harvested from adult Sprague-Dawley rats (220-250 g) and placed in a 3.5 cm dish containing 2 mL of ice-cold neurobasal medium supplemented with 1 × B27, 4 mM Glutamax and 3× penicillin/streptomycin (Pen/Strep). […] After 7 days of culture, axon growth was measured. […]

## N#CC(=C(/N)Sc1ccccc1N)/C(C#N)=C(/N)Sc1ccccc1N [U0126]
Primary DRG neurons; CH02 20 μM + inhibitor 2 μM, n = 40
  effect of AKT/ERK inhibitor on axon growth-promoting effect of CH02, DRG neurons: had little effect
DRG explants; CH02 20 μM + inhibitor 2 μM, n = 4
  effect of AKT/ERK inhibitor on axon growth-promoting effect of CH02, DRG explants: had little effect

## CCN1CCN(c2ccc(Nc3cc(N(C)C(=O)Nc4c(Cl)c(OC)cc(OC)c4Cl)ncn3)cc2)CC1 [BGJ398]
Primary DRG neurons; CH02 20 μM + BGJ398 2 μM, n = 100
  effect of inhibitor on CH02-enhanced neurite outgrowth, primary neurons: inhibited the enhancement of neuron outgrowth associated with CH02 treatment
DRG explants; CH02 20 μM + BGJ398 2 μM, n = 5
  effect of inhibitor on CH02-enhanced neurite outgrowth, DRG explants: inhibited the enhancement of neuron outgrowth associated with CH02 treatment
